Results taken from US20220125051A1, “PRE-HARVEST DESICCATION METHOD” (SYNGENTA CROP PROTECTION AG, priority 2019, published 2022).
Values joined by “and” are separate entries in the source; they are usually repeats but may differ in a detail not shown here. Equal entries are not always repeated.

Columns and labels:
Type in all cases: in vivo
[1] = test system: Amaranthus palmeri (AMAPA); assay: Post-emergence efficacy, Method C; settings: 400 g/Ha, evaluated at 21 days, 100=total damage to plant, 0=no damage
Description: (§1) An “instant formulation”, known as the IF50, containing 50 g/L of the “technical” (i.e. unformulated) active ingredient was prepared by dissolving the active ingredient in a mixture of organic solvents and emulsifier, details of which are provided in the table. This IF50 was then mixed with a small, variable amount of acetone to aid dissolution, before addition of a 1% v/v aqueous solution in water of the adjuvant Empicol ESC70 3EO (Sodium lauryl ether sulphate) and 1% v/v Ammonium sulphate, as the aqueous diluent, to form an aqueous spray solution which contains a predetermined concentration of the active ingredient (which varies depending on the application rate of the active ingredient to the plants).
(§2) The composition of the mixture of organic solvents and emulsifier used as a base for the instant formulation was as given above in Table IF.
(§3) This aqueous spray solution was then sprayed onto the plants after about 21 days of cultivation. The plants were grown from seeds sown in standard soil, placed in a glasshouse under controlled conditions (at 24/18° C., day/night; 14 hours light; 65% humidity). After spray application the plants were then grown on in a glasshouse under the same conditions and watered twice daily. The test was evaluated at 21 days (100=total damage to plant; 0=no damage to plant).
(§4) Ipomoea hederacea (IPOHE), Amaranthus palmeri (AMAPA), Lolium perenne (LOLPE), Eleusine indica (ELEIN), Echinochloa crus-gaffi (ECHCG), Conyza canadensis (ERICA)

[2] = test system: Echinochloa crus-gaffi (ECHCG); assay: Post-emergence efficacy, Method C; settings: 400 g/Ha, evaluated at 21 days, 100=total damage to plant, 0=no damage
Description: as §1, §2, §3, §4

Eleusine indica (ELEIN) [3] = assay: Post-emergence efficacy, Method C; settings: 400 g/Ha, evaluated at 21 days, 100=total damage to plant, 0=no damage
Description: as §1, §2, §3, §4

[4] = test system: Conyza canadensis (ERICA); assay: Post-emergence efficacy, Method C; settings: 400 g/Ha, evaluated at 21 days, 100=total damage to plant, 0=no damage
Description: as §1, §2, §3, §4

[5] = test system: Ipomoea hederacea (IPOHE); assay: Post-emergence efficacy, Method C; settings: 400 g/Ha, evaluated at 21 days, 100=total damage to plant, 0=no damage
Description: as §1, §2, §3, §4

Lolium perenne (LOLPE) [6] = assay: Post-emergence efficacy, Method C; settings: 400 g/Ha, evaluated at 21 days, 100=total damage to plant, 0=no damage
Description: as §1, §2, §3, §4

Setaria faberi (SETFA) = assay: Post-emergence efficacy, Method B; settings: read-out: Control of weed species after post-emergence application, SETFA
Description: (§5) An “instant formulation”, known as the IF50, containing 50 g/L of the “technical” (i.e. unformulated) active ingredient was prepared by dissolving the active ingredient in a mixture of organic solvents and emulsifier, details of which are provided in the table. This IF50 was then mixed with a small, variable amount of acetone to aid dissolution, before addition of an aqueous solution of 1% v/v ammonium sulphate+1% v/v Empicol ESC70 (Sodium lauryl ether sulphate) adjuvant, as the aqueous diluent, to form an aqueous spray solution which contains a predetermined concentration of the active ingredient (which varies depending on the application rate of the active ingredient to the plants).
(§6) This aqueous spray solution was then sprayed onto the plants, after about 12 days' cultivation. The plants were grown from seeds sown in standard soil, placed in a glasshouse under controlled conditions (at 24/18° C. or 20/16° C., day/night; 16 hours light; 65% humidity). After spray application the plants were then grown on in a glasshouse under the same conditions and watered twice daily. […] the test was evaluated (100=total damage to plant; 0=no damage to plant).
(§7) Ipomoea hederacea (IPOHE), Euphorbia heterophylla (EPHHL), Chenopodium album (CHEAL), Amaranthus retroflexus (AMARE), Lolium perenne (LOLPE), Digitaria sanguinalis (DIGSA), Eleusine indica (ELEIN), Echinochloa crus-galli (ECHCG), Setaria faberi (SETFA)

[7] = test system: Amaranthus retroflexus (AMARE); assay: Post-emergence efficacy, Method B; settings: read-out: Control of weed species after post-emergence application, AMARE
Description: as §5, §6, §7

[8] = test system: Chenopodium album (CHEAL); assay: Post-emergence efficacy, Method B; settings: read-out: Control of weed species after post-emergence application, CHEAL
Description: as §5, §6, §7

[9] = test system: Digitaria sanguinalis (DIGSA); assay: Post-emergence efficacy, Method B; settings: read-out: Control of weed species after post-emergence application, DIGSA
Description: as §5, §6, §7

[10] = test system: Euphorbia heterophylla (EPHHL); assay: Post-emergence efficacy, Method B; settings: read-out: Control of weed species after post-emergence application, EPHHL
Description: as §5, §6, §7

Eleusine indica (ELEIN) [11] = assay: Post-emergence efficacy, Method B; settings: read-out: Control of weed species after post-emergence application, ELEIN
Description: as §5, §6, §7

[12] = test system: Echinochloa crus-galli (ECHCG); assay: Post-emergence efficacy, Method B; settings: read-out: Control of weed species after post-emergence application, ECHCG
Description: as §5, §6, §7

[13] = test system: Ipomoea hederacea (IPOHE); assay: Post-emergence efficacy, Method B; settings: read-out: Control of weed species after post-emergence application, IPOHE
Description: as §5, §6, §7

Lolium perenne (LOLPE) [14] = assay: Post-emergence efficacy, Method B; settings: read-out: Control of weed species after post-emergence application, LOLPE
Description: as §5, §6, §7

Helianthus annus (HELAN) = assay: Pre-harvest desiccation of crop plants; settings: Table F, evaluated after 7 and 14 days (which not stated), 100=total damage to plant, 0=no damage
Description: (§8) Seeds of a variety of test species were sown in standard loam based soil in pots. After cultivation from between 21 and 28 days (post-emergence) under controlled conditions in a glasshouse (at 24/16° C., day/night; 14 hours light; 65% humidity) for warm climate species and (at 20/16° C. day/night; 15 hours light; 65% humidity) for cool climate species.
(§9) The plants were sprayed with an aqueous spray solution derived from dissolving the technical active ingredient formula in a small amount of acetone and a special solvent and emulsifier mixture referred to as IF50 (11.12% Emulsogen EL360 TM+44.44% N-methylpyrrolidone+44.44% Dowanol DPM glycol ether), to create a 50 g/I solution which was then diluted to required concentration using a solution of 1% Empicol ESC70 (Sodium lauryl ether sulphate)+1% ammonium sulphate in water as diluent.
(§10) The delivery of the aqueous spray solution was via a laboratory track sprayer which delivered the aqueous spray composition at a rate of 200 litres per hectare, using a flat fan nozzle (Teejet 11002VS) and an application volume of 200 litre/ha (at 2 bar).
(§11) The test plants were then grown in a glasshouse under controlled conditions (at 24/16° C., day/night; 14 hours light; 65% humidity) for warm climate species and (at 20/16° C. day/night; 15 hours light; 65% humidity) for cool climate species and watered twice daily. After 7 and 14 days the test was evaluated (100=total damage to plant; 0=no damage to plant).
(§12) A value of n/t indicates not tested.
(§13) Glycine Max (GLXMA), Solanum turberosum (SOLTU), Gossypium hirsutum (GOSHI), Brassica napus (BRSNN), Helianthus annus (HELAN)

Glycine Max (GLXMA) = assay: Pre-harvest desiccation of crop plants; settings: evaluated after 7 and 14 days (which not stated), 100=total damage to plant, 0=no damage; for Post emergence dessication efficacy, GLXMA: Table F; for Post-emergence dessication efficacy, GLXMA: Table E
Description: as §8, §9, §10, §11, §12, §13

Brassica napus (BRSNN) = assay: Pre-harvest desiccation of crop plants; settings: evaluated after 7 and 14 days (which not stated), 100=total damage to plant, 0=no damage; for Post emergence dessication efficacy, BRSNN: Table F; for Post-emergence dessication efficacy, BRSNN: Table E
Description: as §8, §9, §10, §11, §12, §13

[15] = test system: Solanum turberosum (SOLTU); assay: Pre-harvest desiccation of crop plants; settings: Table E, evaluated after 7 and 14 days (which not stated), 100=total damage to plant, 0=no damage
Description: as §8, §9, §10, §11, §12, §13

[16] = test system: Gossypium hirsutum (GOSHI); assay: Pre-harvest desiccation of crop plants; settings: Table E, evaluated after 7 and 14 days (which not stated), 100=total damage to plant, 0=no damage
Description: as §8, §9, §10, §11, §12, §13

SMILES	Control of weed species after post-emergence application, AMAPA [1]	Control of weed species after post-emergence application, ECHCG [2]	Control of weed species after post-emergence application, ELEIN (Eleusine indica (ELEIN) [3])	Control of weed species after post-emergence application, ERICA [4]	Control of weed species after post-emergence application, IPOHE [5]	Control of weed species after post-emergence application, LOLPE (Lolium perenne (LOLPE) [6])	pest or weed control at 1000 g/ha (Setaria faberi (SETFA))	pest or weed control at 1000 g/ha [7]	pest or weed control at 1000 g/ha [8]	pest or weed control at 1000 g/ha [9]	pest or weed control at 1000 g/ha [10]	pest or weed control at 1000 g/ha (Eleusine indica (ELEIN) [11])	pest or weed control at 1000 g/ha [12]	pest or weed control at 1000 g/ha [13]	pest or weed control at 1000 g/ha (Lolium perenne (LOLPE) [14])	also measured
Cl.O=S(=O)([O-])CC[n+]1ccc(-c2ccncc2)cn1 [Compound A27]	77	43	80	65	90	68	–	–	–	–	–	–	–	–	–	–
O=S(=O)([O-])C[n+]1ccc(-c2ncccn2)cn1 [Compound A3, (4-pyrimidin-2-ylpyridazin-1-ium-1-yl)methanesulfonate]	65	13	15	100	83	25	–	–	–	–	–	–	–	–	–	–
O=C(O)CC[n+]1ccc(-c2cccnn2)cn1.[Cl-] [Compound A138, 3-(4-pyridazin-3-ylpyridazin-1-ium-1-yl)propanoic acid chloride]	–	–	–	–	–	–	100%	100%	100%	100%	100%	100%	100%	40%	100%	Post emergence dessication efficacy, HELAN (Helianthus annus (HELAN); 50 g/Ha): 100; Post emergence dessication efficacy, HELAN (Helianthus annus (HELAN); 150 g/Ha): 100; Post emergence dessication efficacy, HELAN (Helianthus annus (HELAN); 600 g/Ha): 100; Post emergence dessication efficacy, GLXMA (Glycine Max (GLXMA); 50 g/Ha): 57 and 37; Post emergence dessication efficacy, GLXMA (Glycine Max (GLXMA); 150 g/Ha): 67 and 72; Post emergence dessication efficacy, GLXMA (Glycine Max (GLXMA); 600 g/Ha): 82 and 90; Post emergence dessication efficacy, BRSNN (Brassica napus (BRSNN); 150 g/Ha): 63 and 98; Post emergence dessication efficacy, BRSNN (Brassica napus (BRSNN); 600 g/Ha): 96 and 100
O=C(O)CC[n+]1ccc(-c2ccncn2)cn1.[Cl-] [Compound A28]	–	–	–	–	–	–	40%	100%	90%	100%	100%	100%	100%	100%	70%	Post-emergence dessication efficacy, SOLTU ([15]; 150 g/Ha): 100; Post-emergence dessication efficacy, SOLTU ([15]; 300 g/Ha): 100; Post-emergence dessication efficacy, SOLTU ([15]; 600 g/Ha): 100; Post-emergence dessication efficacy, GLXMA (Glycine Max (GLXMA); 150 g/Ha): 93; Post-emergence dessication efficacy, GLXMA (Glycine Max (GLXMA); 300 g/Ha): 99; Post-emergence dessication efficacy, GLXMA (Glycine Max (GLXMA); 600 g/Ha): 99; Post-emergence dessication efficacy, GOSHI ([16]; 150 g/Ha): 100; Post-emergence dessication efficacy, GOSHI ([16]; 300 g/Ha): 100; Post-emergence dessication efficacy, GOSHI ([16]; 600 g/Ha): 100; Post-emergence dessication efficacy, BRSNN (Brassica napus (BRSNN); 150 g/Ha): 97; Post-emergence dessication efficacy, BRSNN (Brassica napus (BRSNN); 300 g/Ha): 100; Post-emergence dessication efficacy, BRSNN (Brassica napus (BRSNN); 600 g/Ha): 100
